Assay results: patent publication US9682995B2, “Amino-substituted isothiazoles” (BAYER PHARMA AKTIENGESELLSCHAFT, priority 2013, dated 2017)

Tests used:
Assay in all cases: Kinase Profiling (KINOMEscan)
Assay type in all cases: binding
[1] = target: 456 kinases (of these 395 non-mutant kinases) (Homo sapiens, UniProt P21860); details: ERBB3; 10 μM
[2] = target: 456 kinases (of these 395 non-mutant kinases) (Homo sapiens, UniProt Q6P3R8); details: NEK5; 10 μM
[3] = target: 456 kinases (of these 395 non-mutant kinases) (Homo sapiens, UniProt P29323); details: EPHB2; 10 μM
Chain of 456 kinases (of these 395 non-mutant kinases) (Homo sapiens, UniProt P29323) (P29323 19-1055 limits assumed, change not shown): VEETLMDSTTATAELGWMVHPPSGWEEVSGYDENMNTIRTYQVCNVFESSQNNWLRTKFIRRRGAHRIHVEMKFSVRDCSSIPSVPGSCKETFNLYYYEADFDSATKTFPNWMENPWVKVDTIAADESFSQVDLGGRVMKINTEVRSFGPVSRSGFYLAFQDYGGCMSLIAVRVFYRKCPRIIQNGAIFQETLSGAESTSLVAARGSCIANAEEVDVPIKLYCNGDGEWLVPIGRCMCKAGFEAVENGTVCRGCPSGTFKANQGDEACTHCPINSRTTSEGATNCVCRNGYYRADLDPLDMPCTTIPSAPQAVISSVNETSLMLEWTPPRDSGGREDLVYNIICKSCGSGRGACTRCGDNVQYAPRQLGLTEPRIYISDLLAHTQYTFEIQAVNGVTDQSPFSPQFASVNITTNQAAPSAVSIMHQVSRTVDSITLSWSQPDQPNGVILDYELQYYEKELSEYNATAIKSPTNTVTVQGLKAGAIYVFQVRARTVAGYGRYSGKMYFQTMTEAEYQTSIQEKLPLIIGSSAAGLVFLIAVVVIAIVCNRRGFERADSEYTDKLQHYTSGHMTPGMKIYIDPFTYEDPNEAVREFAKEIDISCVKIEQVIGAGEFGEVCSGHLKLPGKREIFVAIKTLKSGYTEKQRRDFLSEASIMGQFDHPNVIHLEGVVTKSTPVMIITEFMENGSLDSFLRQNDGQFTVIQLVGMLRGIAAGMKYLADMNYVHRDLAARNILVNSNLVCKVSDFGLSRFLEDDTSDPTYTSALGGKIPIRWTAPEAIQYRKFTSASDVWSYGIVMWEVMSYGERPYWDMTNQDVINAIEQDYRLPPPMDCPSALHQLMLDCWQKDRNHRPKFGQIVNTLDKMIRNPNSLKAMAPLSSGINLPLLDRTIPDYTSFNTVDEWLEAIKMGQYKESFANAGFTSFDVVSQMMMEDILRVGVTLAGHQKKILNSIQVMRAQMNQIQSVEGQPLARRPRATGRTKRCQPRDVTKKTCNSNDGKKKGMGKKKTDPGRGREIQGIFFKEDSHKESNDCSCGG

[4] = target: 456 kinases (of these 395 non-mutant kinases) (Homo sapiens, UniProt O14920); details: IKK-beta; 10 μM
[5] = target: 456 kinases (of these 395 non-mutant kinases) (Homo sapiens, UniProt O75747); details: PIK3C2G; 10 μM
[6] = target: 456 kinases (of these 395 non-mutant kinases) (Homo sapiens, UniProt Q9H2G2); details: SLK; 10 μM
[7] = target: 456 kinases (of these 395 non-mutant kinases) (Homo sapiens, UniProt P42679); details: CTK; 10 μM
[8] = target: 456 kinases (of these 395 non-mutant kinases) (Homo sapiens, UniProt Q9P289); details: MST4; 10 μM
[9] = target: 456 kinases (of these 395 non-mutant kinases) (Homo sapiens, UniProt Q8TD08); details: ERK8; 10 μM
[10] = target: 456 kinases (of these 395 non-mutant kinases) (Homo sapiens, UniProt Q13976); details: PRKG1; 10 μM
[11] = target: 456 kinases (of these 395 non-mutant kinases) (Homo sapiens, UniProt P15735); details: PHKG2; 10 μM
[12] = target: 456 kinases (of these 395 non-mutant kinases) (Homo sapiens, UniProt Q15569); details: TESK1; 10 μM
[13] = target: 456 kinases (of these 395 non-mutant kinases) (Homo sapiens, UniProt P07948); details: LYN; 10 μM
Chain of 456 kinases (of these 395 non-mutant kinases) (Homo sapiens, UniProt P07948) (P07948 2-512 limits assumed, change not shown): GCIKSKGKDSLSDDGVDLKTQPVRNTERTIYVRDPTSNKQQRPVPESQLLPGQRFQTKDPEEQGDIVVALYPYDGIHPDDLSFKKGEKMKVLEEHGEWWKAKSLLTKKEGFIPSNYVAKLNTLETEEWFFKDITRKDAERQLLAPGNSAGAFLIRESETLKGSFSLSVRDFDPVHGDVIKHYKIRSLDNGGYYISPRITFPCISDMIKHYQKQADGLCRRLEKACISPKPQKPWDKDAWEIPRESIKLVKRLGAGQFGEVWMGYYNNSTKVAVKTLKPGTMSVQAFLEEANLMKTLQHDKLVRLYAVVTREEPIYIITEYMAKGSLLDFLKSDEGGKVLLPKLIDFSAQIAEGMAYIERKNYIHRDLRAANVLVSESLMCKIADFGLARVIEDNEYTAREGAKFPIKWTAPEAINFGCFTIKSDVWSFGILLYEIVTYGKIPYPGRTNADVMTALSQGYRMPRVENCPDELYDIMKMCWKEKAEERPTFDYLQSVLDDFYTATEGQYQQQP

[14] = target: 456 kinases (of these 395 non-mutant kinases) (Homo sapiens, UniProt Q8NI60); details: ADCK3; 10 μM
Chain of 456 kinases (of these 395 non-mutant kinases) (Homo sapiens, UniProt Q8NI60) (Q8NI60 163-647 limits assumed, stated change not applied): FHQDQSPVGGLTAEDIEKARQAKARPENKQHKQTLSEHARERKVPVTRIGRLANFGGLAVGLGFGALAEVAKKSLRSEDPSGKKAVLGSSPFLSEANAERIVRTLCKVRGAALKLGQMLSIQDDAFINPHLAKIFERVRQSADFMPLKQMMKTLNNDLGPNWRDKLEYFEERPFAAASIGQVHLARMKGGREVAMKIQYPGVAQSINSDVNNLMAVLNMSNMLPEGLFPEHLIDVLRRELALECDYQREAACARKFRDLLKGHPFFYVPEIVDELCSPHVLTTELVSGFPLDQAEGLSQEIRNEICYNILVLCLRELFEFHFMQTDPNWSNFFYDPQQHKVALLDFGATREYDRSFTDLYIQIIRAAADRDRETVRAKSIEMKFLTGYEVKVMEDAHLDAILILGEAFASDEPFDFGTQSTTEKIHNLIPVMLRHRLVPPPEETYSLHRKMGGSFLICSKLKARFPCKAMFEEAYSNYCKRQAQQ

[15] = target: 456 kinases (of these 395 non-mutant kinases) (Homo sapiens, UniProt P14616); details: INSRR; 10 μM
[16] = target: 456 kinases (of these 395 non-mutant kinases) (Homo sapiens, UniProt P42681); details: TXK; 10 μM
[17] = target: 456 kinases (of these 395 non-mutant kinases) (Homo sapiens, UniProt O96013); details: PAK4; 10 μM
[18] = target: 456 kinases (of these 395 non-mutant kinases) (Homo sapiens, UniProt Q15746); details: MYLK; 10 μM
[19] = target: 456 kinases (of these 395 non-mutant kinases) (Homo sapiens, UniProt Q96RR4); details: CAMKK2; 10 μM
[20] = target: 456 kinases (of these 395 non-mutant kinases) (Homo sapiens, UniProt O43318); details: TAK1; 10 μM
[21] = target: 456 kinases (of these 395 non-mutant kinases) (Homo sapiens, UniProt Q13523); details: PRP4; 10 μM
Chain of 456 kinases (of these 395 non-mutant kinases) (Homo sapiens, UniProt Q13523) (Q13523 2-1007 limits assumed, change not shown): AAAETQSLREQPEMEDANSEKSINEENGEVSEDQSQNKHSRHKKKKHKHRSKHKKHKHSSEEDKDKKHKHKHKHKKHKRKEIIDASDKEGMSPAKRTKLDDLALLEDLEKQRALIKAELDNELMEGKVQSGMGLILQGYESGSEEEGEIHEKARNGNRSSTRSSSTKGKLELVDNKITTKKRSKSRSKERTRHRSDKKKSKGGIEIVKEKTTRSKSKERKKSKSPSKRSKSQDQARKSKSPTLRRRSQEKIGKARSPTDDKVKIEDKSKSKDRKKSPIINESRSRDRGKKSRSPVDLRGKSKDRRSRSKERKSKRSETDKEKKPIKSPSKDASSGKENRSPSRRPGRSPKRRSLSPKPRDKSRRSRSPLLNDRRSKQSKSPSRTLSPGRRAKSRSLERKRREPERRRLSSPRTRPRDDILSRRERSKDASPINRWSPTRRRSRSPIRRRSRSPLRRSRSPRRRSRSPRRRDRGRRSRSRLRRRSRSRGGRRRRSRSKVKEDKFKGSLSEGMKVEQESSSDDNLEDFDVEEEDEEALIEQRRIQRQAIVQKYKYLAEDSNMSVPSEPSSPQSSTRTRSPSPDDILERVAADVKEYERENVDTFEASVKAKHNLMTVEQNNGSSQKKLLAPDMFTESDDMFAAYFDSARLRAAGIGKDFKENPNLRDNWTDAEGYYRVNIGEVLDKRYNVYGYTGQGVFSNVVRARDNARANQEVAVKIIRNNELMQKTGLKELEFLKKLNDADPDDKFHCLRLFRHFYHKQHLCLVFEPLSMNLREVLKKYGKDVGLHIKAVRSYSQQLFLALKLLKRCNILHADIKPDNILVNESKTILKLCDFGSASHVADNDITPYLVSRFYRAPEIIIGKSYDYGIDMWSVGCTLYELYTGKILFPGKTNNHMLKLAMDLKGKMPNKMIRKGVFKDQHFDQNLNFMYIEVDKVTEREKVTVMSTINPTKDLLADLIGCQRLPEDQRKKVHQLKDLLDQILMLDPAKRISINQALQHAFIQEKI

[22] = target: 456 kinases (of these 395 non-mutant kinases) (Homo sapiens, UniProt O95819); details: MAP4K4; 10 μM
[23] = target: 456 kinases (of these 395 non-mutant kinases) (Homo sapiens, UniProt Q9UM73); details: ALK; 10 μM
[24] = target: 456 kinases (of these 395 non-mutant kinases) (Homo sapiens, UniProt Q9H4A3); details: WNK1; 10 μM
[25] = target: 456 kinases (of these 395 non-mutant kinases) (Homo sapiens, UniProt Q9BRS2); details: RIOK1; 10 μM
[26] = target: 456 kinases (of these 395 non-mutant kinases) (Homo sapiens, UniProt Q5S007); details: LRRK2; 10 μM
[27] = target: 456 kinases (of these 395 non-mutant kinases) (Homo sapiens, UniProt Q13470); details: TNK1; 10 μM
[28] = target: 456 kinases (of these 395 non-mutant kinases) (Homo sapiens, UniProt Q6ZWH5); details: NEK10; 10 μM
[29] = target: 456 kinases (of these 395 non-mutant kinases) (Homo sapiens, UniProt P10721, V559D); details: KIT(V559D); 10 μM
Chain of 456 kinases (of these 395 non-mutant kinases) (Homo sapiens, UniProt P10721, V559D) (P10721 26-976 V559D limits assumed): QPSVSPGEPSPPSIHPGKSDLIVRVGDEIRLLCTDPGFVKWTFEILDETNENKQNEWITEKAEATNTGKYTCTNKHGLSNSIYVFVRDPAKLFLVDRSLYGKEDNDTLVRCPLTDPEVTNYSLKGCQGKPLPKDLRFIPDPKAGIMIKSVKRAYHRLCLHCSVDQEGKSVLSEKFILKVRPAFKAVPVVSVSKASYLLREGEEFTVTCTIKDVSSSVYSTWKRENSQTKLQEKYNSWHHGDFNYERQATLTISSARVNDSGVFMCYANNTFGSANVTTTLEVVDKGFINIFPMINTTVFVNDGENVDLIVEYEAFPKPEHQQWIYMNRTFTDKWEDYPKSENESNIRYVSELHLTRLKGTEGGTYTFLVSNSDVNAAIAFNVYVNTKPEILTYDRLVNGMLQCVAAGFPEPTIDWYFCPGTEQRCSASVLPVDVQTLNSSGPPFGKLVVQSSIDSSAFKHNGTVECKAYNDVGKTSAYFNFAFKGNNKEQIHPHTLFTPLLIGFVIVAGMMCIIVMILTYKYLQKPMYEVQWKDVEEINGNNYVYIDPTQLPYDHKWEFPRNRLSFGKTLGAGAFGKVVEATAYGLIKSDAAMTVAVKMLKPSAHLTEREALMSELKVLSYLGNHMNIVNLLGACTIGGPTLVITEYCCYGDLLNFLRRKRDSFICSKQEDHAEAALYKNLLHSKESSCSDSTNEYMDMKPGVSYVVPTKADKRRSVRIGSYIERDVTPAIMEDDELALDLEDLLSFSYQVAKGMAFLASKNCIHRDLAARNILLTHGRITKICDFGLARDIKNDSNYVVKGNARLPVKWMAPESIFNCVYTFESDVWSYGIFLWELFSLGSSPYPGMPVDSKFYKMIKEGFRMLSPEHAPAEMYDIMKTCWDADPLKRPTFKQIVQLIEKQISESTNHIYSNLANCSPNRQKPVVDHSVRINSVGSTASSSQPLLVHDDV

[30] = target: 456 kinases (of these 395 non-mutant kinases) (Homo sapiens, UniProt P57058); details: HUNK; 10 μM
[31] = target: 456 kinases (of these 395 non-mutant kinases) (Homo sapiens, UniProt P11309); details: PIM1; 10 μM
[32] = target: 456 kinases (of these 395 non-mutant kinases) (Homo sapiens, UniProt O15197); details: EPHB6; 10 μM
Chain of 456 kinases (of these 395 non-mutant kinases) (Homo sapiens, UniProt O15197) (O15197 32-1021 limits assumed, change not shown): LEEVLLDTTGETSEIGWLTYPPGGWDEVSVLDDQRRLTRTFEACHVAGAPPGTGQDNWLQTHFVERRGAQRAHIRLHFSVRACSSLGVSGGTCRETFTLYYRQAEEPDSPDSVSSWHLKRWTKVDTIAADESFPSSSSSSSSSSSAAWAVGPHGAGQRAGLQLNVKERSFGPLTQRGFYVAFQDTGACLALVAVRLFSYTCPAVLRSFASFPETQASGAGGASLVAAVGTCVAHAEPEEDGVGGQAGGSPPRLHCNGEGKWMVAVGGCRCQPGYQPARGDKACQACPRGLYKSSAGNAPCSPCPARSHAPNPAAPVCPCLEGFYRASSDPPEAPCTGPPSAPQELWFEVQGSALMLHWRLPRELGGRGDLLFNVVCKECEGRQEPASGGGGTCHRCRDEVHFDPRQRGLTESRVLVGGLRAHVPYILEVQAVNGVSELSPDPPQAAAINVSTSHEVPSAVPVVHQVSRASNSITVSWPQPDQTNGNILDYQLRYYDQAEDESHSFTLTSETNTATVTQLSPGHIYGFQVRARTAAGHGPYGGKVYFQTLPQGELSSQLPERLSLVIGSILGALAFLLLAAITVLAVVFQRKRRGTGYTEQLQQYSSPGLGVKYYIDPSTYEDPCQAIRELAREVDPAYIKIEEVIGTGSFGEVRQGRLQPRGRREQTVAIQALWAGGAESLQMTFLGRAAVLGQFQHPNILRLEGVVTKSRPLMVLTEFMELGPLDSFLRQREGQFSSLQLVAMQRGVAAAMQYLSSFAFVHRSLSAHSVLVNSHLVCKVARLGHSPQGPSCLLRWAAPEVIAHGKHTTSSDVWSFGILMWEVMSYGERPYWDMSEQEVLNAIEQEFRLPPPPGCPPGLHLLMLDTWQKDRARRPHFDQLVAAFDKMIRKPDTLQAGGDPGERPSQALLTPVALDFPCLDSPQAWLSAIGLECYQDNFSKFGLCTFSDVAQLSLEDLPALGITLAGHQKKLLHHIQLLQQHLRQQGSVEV

[33] = target: 456 kinases (of these 395 non-mutant kinases) (Homo sapiens, UniProt Q9UIK4); details: DAPK2; 10 μM

## CCc1ccccc1NC(=O)c1c(C)nsc1Nc1cnc2cc(F)ccc2n1 [Example 20, N-(2-Ethylphenyl)-5-[(6-fluoroquinoxalin-2-yl)amino]-3-methyl-1,2-thiazole-4-carboxamide]
[1]
  % Ctrl @ 10 μM: 99 % Ctrl
[2]
  % Ctrl @ 10 μM: 100 % Ctrl
[3]
  % Ctrl @ 10 μM: 77 % Ctrl
[4]
  % Ctrl @ 10 μM: 90 % Ctrl
[5]
  % Ctrl @ 10 μM: 86 % Ctrl
[6]
  % Ctrl @ 10 μM: 95 % Ctrl
[7]
  % Ctrl @ 10 μM: 61 % Ctrl
[8]
  % Ctrl @ 10 μM: 100 % Ctrl
[9]
  % Ctrl @ 10 μM: 82 % Ctrl
[10]
  % Ctrl @ 10 μM: 90 % Ctrl
[11]
  % Ctrl @ 10 μM: 99 % Ctrl
[12]
  % Ctrl @ 10 μM: 78 % Ctrl
[13]
  % Ctrl @ 10 μM: 76 % Ctrl
[14]
  % Ctrl @ 10 μM: 64 % Ctrl
[15]
  % Ctrl @ 10 μM: 76 % Ctrl
[16]
  % Ctrl @ 10 μM: 71 % Ctrl
[17]
  % Ctrl @ 10 μM: 100 % Ctrl
[18]
  % Ctrl @ 10 μM: 87 % Ctrl
[19]
  % Ctrl @ 10 μM: 74 % Ctrl
[20]
  % Ctrl @ 10 μM: 100 % Ctrl
[21]
  % Ctrl @ 10 μM: 87 % Ctrl
[22]
  % Ctrl @ 10 μM: 100 % Ctrl
[23]
  % Ctrl @ 10 μM: 77 % Ctrl
[24]
  % Ctrl @ 10 μM: 100 % Ctrl
[25]
  % Ctrl @ 10 μM: 100 % Ctrl
[26]
  % Ctrl @ 10 μM: 95 % Ctrl
[27]
  % Ctrl @ 10 μM: 86 % Ctrl
[28]
  % Ctrl @ 10 μM: 84 % Ctrl
[29]
  % Ctrl @ 10 μM: 61 % Ctrl
[30]
  % Ctrl @ 10 μM: 93 % Ctrl
[31]
  % Ctrl @ 10 μM: 100 % Ctrl
[32]
  % Ctrl @ 10 μM: 92 % Ctrl
[33]
  % Ctrl @ 10 μM: 73 % Ctrl
